Earlier results on one compound are cited in US20040039017A1, “Urotensin-II receptor antagonists” (priority 2000, published 2004).

The data set has as its system rat-isolated aorta. The note with it: Ames et al. Nature 1999, 401, 282.

Turning to `CC(C)[C@H](NC(=O)[C@@H]1CSSC[C@H](NC(=O)[C@H](CC(=O)O)NC(=O)[C@@H]2CCCN2C(=O)[C@@H](NC(=O)[C@@H](N)CCC(=O)O)[C@@H](C)O)C(=O)N[C@@H](Cc2ccccc2)C(=O)N[C@@H](Cc2c[nH]c3ccccc23)C(=O)N[C@@H](CCCCN)C(=O)N[C@@H](Cc2ccc(O)cc2)C(=O)N1)C(=O)O` [Human Urotensin-II], the contractile activity entry is given as “most potent contractile agonist identified to date”.
